Some results are limits rather than exact numbers.

Sequence of human Nav1.7 (Q15858 other isoform, or with tags, fused parts or gaps): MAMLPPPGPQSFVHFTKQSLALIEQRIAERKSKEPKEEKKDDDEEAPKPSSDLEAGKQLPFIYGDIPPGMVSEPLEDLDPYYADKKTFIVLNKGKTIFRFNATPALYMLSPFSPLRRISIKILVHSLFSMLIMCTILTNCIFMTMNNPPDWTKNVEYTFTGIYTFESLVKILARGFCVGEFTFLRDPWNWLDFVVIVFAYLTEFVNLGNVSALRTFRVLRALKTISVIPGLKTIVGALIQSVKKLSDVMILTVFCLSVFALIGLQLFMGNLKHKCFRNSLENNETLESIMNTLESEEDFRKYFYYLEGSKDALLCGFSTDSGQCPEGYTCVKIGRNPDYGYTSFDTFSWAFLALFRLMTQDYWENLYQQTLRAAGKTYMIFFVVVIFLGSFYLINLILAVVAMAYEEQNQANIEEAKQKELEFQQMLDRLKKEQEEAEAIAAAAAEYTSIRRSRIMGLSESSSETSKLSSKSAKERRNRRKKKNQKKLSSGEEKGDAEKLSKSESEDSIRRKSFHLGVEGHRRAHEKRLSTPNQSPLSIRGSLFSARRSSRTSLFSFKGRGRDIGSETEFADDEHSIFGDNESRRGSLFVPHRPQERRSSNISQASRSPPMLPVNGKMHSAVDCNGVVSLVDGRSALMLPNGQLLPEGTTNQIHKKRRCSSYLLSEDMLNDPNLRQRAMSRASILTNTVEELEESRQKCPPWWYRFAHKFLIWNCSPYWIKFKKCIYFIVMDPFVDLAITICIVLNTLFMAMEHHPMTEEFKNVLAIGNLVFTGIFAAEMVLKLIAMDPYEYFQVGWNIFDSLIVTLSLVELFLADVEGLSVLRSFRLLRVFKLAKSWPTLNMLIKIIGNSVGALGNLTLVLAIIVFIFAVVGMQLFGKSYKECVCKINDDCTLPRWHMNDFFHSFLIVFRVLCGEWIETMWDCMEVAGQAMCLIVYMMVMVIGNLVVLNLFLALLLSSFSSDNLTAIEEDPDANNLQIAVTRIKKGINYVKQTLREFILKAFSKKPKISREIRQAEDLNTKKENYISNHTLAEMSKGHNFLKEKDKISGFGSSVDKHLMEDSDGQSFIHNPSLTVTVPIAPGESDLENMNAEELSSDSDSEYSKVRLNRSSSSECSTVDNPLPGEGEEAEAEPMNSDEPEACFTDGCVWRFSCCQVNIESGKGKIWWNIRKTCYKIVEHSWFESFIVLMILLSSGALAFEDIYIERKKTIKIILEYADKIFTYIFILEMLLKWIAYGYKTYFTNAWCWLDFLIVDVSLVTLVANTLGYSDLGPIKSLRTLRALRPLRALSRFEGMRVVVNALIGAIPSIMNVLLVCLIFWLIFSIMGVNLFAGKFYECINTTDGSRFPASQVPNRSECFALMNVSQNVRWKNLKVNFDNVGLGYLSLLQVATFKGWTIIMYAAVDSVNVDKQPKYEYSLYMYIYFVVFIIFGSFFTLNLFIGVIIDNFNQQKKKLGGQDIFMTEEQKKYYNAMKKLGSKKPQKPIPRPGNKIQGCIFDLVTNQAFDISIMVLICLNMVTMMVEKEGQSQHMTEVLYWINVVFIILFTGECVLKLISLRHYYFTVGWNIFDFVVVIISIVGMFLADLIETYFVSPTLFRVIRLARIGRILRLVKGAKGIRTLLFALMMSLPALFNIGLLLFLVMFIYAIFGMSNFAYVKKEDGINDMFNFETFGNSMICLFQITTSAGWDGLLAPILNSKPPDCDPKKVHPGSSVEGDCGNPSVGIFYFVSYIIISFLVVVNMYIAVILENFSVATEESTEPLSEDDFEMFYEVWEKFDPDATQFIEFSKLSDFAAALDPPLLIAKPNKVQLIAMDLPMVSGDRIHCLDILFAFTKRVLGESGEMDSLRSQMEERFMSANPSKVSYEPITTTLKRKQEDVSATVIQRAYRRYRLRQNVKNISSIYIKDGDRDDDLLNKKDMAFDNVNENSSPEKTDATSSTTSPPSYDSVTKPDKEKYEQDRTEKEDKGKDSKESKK

The experiment addresses human Nav1.7 (Homo sapiens (Human), UniProt Q15858). Put plainly: FLIPR membrane potential dye assay (alternative fluorescence assay). The settings on record: recombinant Nav1.7/HEK293 cells. The experiment is classed as cell-based. The method, then:
In vitro assays were performed in a recombinant cell line expressing cDNA encoding the alpha subunit (Nav1.7, SCN9a, PN1, NE) of human Nav1.7 (Accession No. NM_002977). The cell line was provided by investigators at Yale University (Cummins et al, J. Neurosci. 18(23): 9607-9619 (1998)). For dominant selection of the Nav1.7-expressing clones, the expression plasmid co-expressed the neomycin resistance gene. The cell line was constructed in the human embryonic kidney cell line, HEK293, under the influence of the CMV […] promoter, and stable clones were selected using limiting dilution cloning and antibiotic selection using the neomycin analogue, G418. Recombinant beta and gamma subunits were not introduced into this cell line. Additional cell lines expressing recombinant Nav1.7 cloned from other species can also be used, alone or in combination with various beta subunits, gamma subunits or chaperones.
A fluorescence indicator that can be used in alternative fluorescence assays is the blue version membrane potential dye (MDS, Molecular Devices, Sunnyvale, Calif.), a dye that detects changes in molecules following a change in membrane potential. An increase in fluorescence is expected if agonist stimulation provokes a change in membrane potential. Cells expressing Nav1.7 or other sodium channels are incubated with the membrane potential dye 30-60 minutes before the fluorescence assay. In the case of the KCl pre-stimulation version of the assay, the dye and all other components are washed out immediately before the assay, and the dye is then replaced. In the version lacking KCl pre-stimulation, the dye remains on the cells and is not washed out or replaced. The dye is stored in the dark as a lyophilized powder, and then an aliquot dissolved in assay buffer to form a 20×-concentrated stock solution that can be used for several weeks.
In the fluorescence assays, two agonists were used in combination, namely 1) veratridine; and 2) the venom from the yellow scorpion, Leiurus quinquestriatus hebraeus. Veratridine is an alkaloid small molecule that facilitates the capture of channel openings by inhibiting inactivation, and the scorpion venom is a natural preparation that includes peptide toxins selective for different subsets of voltage-gated sodium channels. These scorpion toxins inhibit the fast inactivation of their cognate target channels. Stock solutions of the agonists were prepared to 40 mM in DMSO (veratridine) and 1 mg/mL in dH2O (scorpion venom), and then diluted to make a 4× or 2× stock (depending on the particular assay) in assay buffer, the final concentration being 100 μM (veratridine) and 10 μg/mL (scorpion venom). Both of the agonists were purchased from Sigma Aldrich, St. Louis, Mo.
Test compounds were dissolved in DMSO to yield 10 mM stock solutions. The stock solutions were further diluted using DMSO in 1:3 serial dilution steps with 10 points (10,000 μM, […], 370 μM, 123 μM, 41 μM, 14 μM, 4.6 μM, 1.5 μM and 0.5 μM). The stock solutions were further diluted in assay buffer (1:125) as 4× stock serial dilutions with a DMSO concentration of 0.8% (final [DMSO], in the assay, from the compounds component=0.2%), so that the compounds' final concentrations in the assay were 20 μM, 6.7 μM, 2.2 μM, 0.74 μM, 0.25 μM and 0.08 μM, 0.03 μM, 0.01 μM, 0.003 μM and 0.001 μM. If a particular test article appeared to be especially potent, then the concentration curve was adjusted, e.g., to 10-fold lower concentrations, in order to perform the dose-response in a more relevant concentration range. Compound dilutions were added during the dye-loading and pre-stimulation step, and then again during the fluorescence assay, early in the kinetic read.
The data were analyzed according to methods known to those skilled in the art or using the GraphPad® Prism Program, version 4.0 or higher (available from GraphPad Software, San Diego, Calif.) to determine the IC50 value for the test article. […]
As usually defined, the IC50 is the concentration that gives 50% inhibition. Take `NC(=O)C1CCCN(C(=O)c2cc(C(F)(F)F)ccc2Oc2ccc(-c3cccc([C@H](O)CO)n3)cc2)C1` (stereo partly drawn) [compound 173, 1-(2-(4-(6-((S)-1,2-dihydroxyethyl)pyridin-2-yl)phenoxy)-5-(trifluoromethyl)benzoyl)piperidine-3-carboxamide]: the IC50 was more than 20 µM.
For the compound `O=C(NC[C@@H](O)CO)c1cc(C(F)(F)F)ccc1Oc1ccc(-c2cccc([C@H](O)CO)n2)cc1` [compound 167, 2-(4-(6-((S)-1,2-dihydroxyethyl)pyridin-2-yl)phenoxy)-N-((R)-2,3-dihydroxypropyl)-5-(trifluoromethyl)benzamide], the concentration for half-maximal inhibition (IC50) is more than 20 µM.
Regarding `NC(=O)c1cc(N[C@H]2CCNC2=O)nc(-c2ccc(Oc3ccc(Cl)cc3-c3ccnn3C3CNC3)cc2)n1` [compound 137, (S)-2-(4-(2-(1-(azetidin-3-yl)-1H-pyrazol-5-yl)-4-chlorophenoxy)phenyl)-6-((2-oxopyrrolidin-3-yl)amino)pyrimidine-4-carboxamide], the half-maximal inhibitory concentration (IC50) was more than 20 µM.
In the case of `C[C@H](Nc1cc(C(N)=O)nc(-c2ccc(Oc3ccc(C(F)(F)F)cc3-c3cnc(N(C)C)cn3)cc2)n1)C(N)=O` [compound 134, (S)-6-((1-amino-1-oxopropan-2-yl)amino)-2-(4-(2-(5-(dimethylamino)pyrazin-2-yl)-4-(trifluoromethyl)phenoxy)phenyl) pyrimidine-4-carboxamide] it was 0.393 ± 0.048 µM.
As for `Cn1nccc1-c1cc(C(F)(F)F)ccc1Oc1ccc(-c2nccc(C(N)=O)n2)cc1` [compound 125, 2-(4-(2-(1-methyl-1H-pyrazol-5-yl)-4-(trifluoromethyl)phenoxy)phenyl) pyrimidine-4-carboxamide], the IC50 turned out to be 0.311 ± 0.006 µM.
In the case of `O=C(Nc1nncs1)c1cc(C(F)(F)F)ccc1Oc1ccc(-c2cccc([C@H](O)CO)n2)cc1` [compound 174, (S)-2-(4-(6-(1,2-dihydroxyethyl)pyridin-2-yl)phenoxy)-N-(1,3,4-thiadiazol-2-yl)-5-(trifluoromethyl)-benzamide] it was 3.61 ± 0.229 µM.
As for `O=C(NCc1nnn[nH]1)c1cc(C(F)(F)F)ccc1Oc1ccc(-c2cccc([C@H](O)CO)n2)cc1` [compound 176, (S)-N-((1H-tetrazol-5-yl)methyl)-2-(4-(6-(1,2-dihydroxyethyl)-pyridin-2-yl)phenoxy)-5-(trifluoromethyl)benzamide], the IC50 is more than 20 µM.
Under `NC(=O)c1cc(C(=O)O)nc(-c2ccc(Oc3ccc(C(F)(F)F)cc3CN3CCOCC3)cc2)n1` [compound 132, 6-carbamoyl-2-(4-(2-(morpholinomethyl)-4-(trifluoromethyl)phenoxy)phenyl) pyrimidine-4-carboxylic acid] stands 9.8 ± 0.365 µM.
Under `CN(C)c1ncc(-c2cc(C(F)(F)F)ccc2Oc2ccc(-c3nc(N[C@H]4CCNC4=O)cc(C(N)=O)n3)cc2)cn1` [compound 128, (S)-2-(4-(2-(2-(dimethylamino)pyrimidin-5-yl)-4-(trifluoromethyl)phenoxy)phenyl)-6-((2-oxopyrrolidin-3-yl)amino)pyrimidine-4-carboxamide] stands 0.684 ± 0.034 µM.
For the compound `CCN(CC)Cc1cc(C(F)(F)F)ccc1Oc1ccc(-c2nc(C(N)=O)cc([C@@H](O)CO)n2)cc1` [compound 133, (R)-2-(4-(2-((diethylamino)methyl)-4-(trifluoromethyl)phenoxy)phenyl)-6-(1,2-dihydroxyethyl)pyrimidine-4-carboxamide], the IC50 was determined as 0.699 ± 0.045 µM.
Under `NC(=O)c1cc(CCn2ccnc2)nc(-c2ccc(Oc3ccc(C(F)(F)F)cc3CN3CCOCC3)cc2)n1` [compound 127, 6-(2-(1H-imidazol-1-yl)ethyl)-2-(4-(2-(morpholinomethyl)-4-(trifluoromethyl)phenoxy)phenyl) pyrimidine-4-carboxamide] stands 0.486 ± 0.032 µM; under `CCN(CC)C(=O)c1cc(C(F)(F)F)ccc1Oc1ccc(-c2cccc([C@H](O)CO)n2)cc1` [compound 168, (S)-2-(4-(6-(1,2-dihydroxyethyl)pyridin-2-yl)phenoxy)-N,N-diethyl-5-(trifluoromethyl)benzamide], 0.519 ± 0.083 µM; under `CCN(CCN(C)C)C(=O)c1cc(C(F)(F)F)ccc1Oc1ccc(-c2cccc([C@H](O)CO)n2)cc1` [compound 172, (S)-2-(4-(6-(1,2-dihydroxyethyl)pyridin-2-yl)phenoxy)-N-(2-(dimethyl-amino)ethyl)-N-ethyl-5-(trifluoromethyl)benzamide], 7.97 ± 1.19 µM.
For `CCN(C)C(=O)c1cc(C(F)(F)F)ccc1Oc1ccc(-c2cccc([C@H](O)CO)n2)cc1` [compound 169, (S)-2-(4-(6-(1,2-dihydroxy-ethyl)pyridin-2-yl)phenoxy)-N-ethyl-N-methyl-5-(trifluoro-methyl)benzamide], the IC50 was found to be 1.55 ± 0.286 µM.
Under `CCN(CC)Cc1cc(C(F)(F)F)ccc1Oc1ccc(-c2nc(C(N)=O)cc(C(=O)O)n2)cc1` [compound 131, 6-carbamoyl-2-(4-(2-((diethylamino)methyl)-4-(trifluoromethyl)phenoxy)phenyl) pyrimidine-4-carboxylic acid] stands more than 20 µM; under `O=C(c1cc(C(F)(F)F)ccc1Oc1ccc(-c2cccc([C@H](O)CO)n2)cc1)N1CC[C@H](O)C1` [compound 170, (2-(4-(6-((S)-1,2-dihydroxyethyl)pyridin-2-yl)phenoxy)-5-(trifluoromethyl)phenyl)((S)-3-hydroxypyrrolidin-1-yl)methanone], more than 20 µM; under `CCN(CC)Cc1cc(C(F)(F)F)ccc1Oc1ccc(-c2nc(CCOC(C)=O)cc(C(N)=O)n2)cc1` [compound 124, 2-(6-carbmoyl-2-(4-(2-((diethylamino)methyl)-4-(trifluoromethyl)phenoxy)phenyl)pyrimidin-4-yl)ethyl acetate], 0.367 ± 0.028 µM.
In the case of `CCN(CC)Cc1cc(C(F)(F)F)ccc1Oc1ccc(-c2nc(C(N)=O)cc([C@H](O)CO)n2)cc1` [compound 130, (S)-2-(4-(2-((diethylamino)methyl)-4-(trifluoromethyl)phenoxy)phenyl)-6-(1,2-dihydroxyethyl)pyrimidine-4-carboxamide] it was 1.28 ± 0.135 µM; in that of `Cn1nccc1-c1cc(C(F)(F)F)ccc1Oc1ccc(-c2nc(C(N)=O)cc([C@H](O)CO)n2)cc1` [compound 122, (S)-6-(1,2-dihydroxyethyl)-2-(4-(2-(1-methyl-1H-pyrazol-5-yl)-4-(trifluoromethyl)phenoxy)phenyl) pyrimidine-4-carboxamide], 0.079 ± 0.015 µM; in that of `Cn1nccc1-c1cc(Cl)ccc1Oc1ccc(-c2nc(N[C@H]3CCNC3=O)cc(C(N)=O)n2)cc1` [compound 141, (S)-2-(4-(4-chloro-2-(1-methyl-1H-pyrazol-5-yl)phenoxy)phenyl)-6-((2-oxopyrrolidin-3-yl)amino)-pyrimidine-4-carboxamide], 0.45 ± 0.053 µM.
In the case of `C[C@H](Nc1cc(C(N)=O)nc(-c2ccc(Oc3ccccc3-c3ccnn3C)cc2)n1)C(N)=O` [compound 140, (S)-6-((1-amino-1-oxopropan-2-yl)amino)-2-(4-(2-(1-methyl-1H-pyrazol-5-yl)phenoxy)phenyl)-pyrimidine-4-carboxamide] it was 4.23 ± 0.479 µM.
As to `CCN(CCO)C(=O)c1cc(C(F)(F)F)ccc1Oc1ccc(-c2cccc([C@H](O)CO)n2)cc1` [compound 171, (S)-2-(4-(6-(1,2-dihydroxyethyl)pyridin-2-yl)phenoxy)-N-ethyl-N-(2-hydroxyethyl)-5-(trifluoro-methyl)benzamide], the IC50 is more than 20 µM.
In the case of `C[C@H](Nc1cc(C(N)=O)nc(-c2ccc(Oc3ccccc3-c3ccnn3C)cc2)n1)C(N)=O` [compound 139, (S)-6-((1-amino-1-oxopropan-2-yl)amino)-2-(4-(2-(1-methyl-1H-pyrazol-5-yl)phenoxy)phenyl)-pyrimidine-4-carboxamide], the IC50 lay in the range of 10 to 20 µM.

These data come from patent US10005768B2, “Carboxamide derivatives and use thereof” (Purdue Pharma L.P., priority 2013, dated 2018).
